Data as given in PubChem BioAssay AID179 (DTP/NCI, 2004).
Active and inactive are the calls of the source.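 How the source made its calls: active means compounds giving half or more protection of infected cells from virus-caused growth loss, again on retest; inactive means the rest.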 Where a SMILES comes first, the peptide text is derived from it. The star is where a group is joined. Cbz = O=C(OCc1ccccc1)*

System: CEM cells HIV-1 protection, formazan growth assay
Test: NCI AIDS Antiviral Assay
Conditions: for IC50: measured here: growth of uninfected CEM cells
Outline: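 Protection of CEM cells against HIV-1 measured as cell growth via soluble formazan read-out, with five concentrations tested on both infected and uninfected cells; failure to protect may reflect toxicity.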

Structure (SMILES)	EC50 [µM]	IC50 [µM]	outcome
C[N+]12CCCCC1C(COc1cccc3cccnc13)CCC2 (stereo unspecified)	> 200	117	–
Cc1cc(=O)n2c(n1)sc1ccc3ccccc3c12	> 200	> 200	–
COc1ccc(OC)c(C(Cc2ccnc3ccccc23)Cc2ccnc3ccccc23)c1	> 200	26.3	–
CN(C)CCC(=O)/C=C\c1ccccc1	–	–	inactive
c1ccc(SC2CC[C@H]3CCCC[C@H]3O2)cc1 (stereo partly specified)	–	–	inactive
C/C(CC(=O)Nc1ccc(NC(=O)/C(C)=N/NS(=O)(=O)c2ccc(C)cc2)cc1)=N\NS(=O)(=O)c1ccc(C)cc1	> 158	> 158	–
N#Cc1c(NC(=S)Nc2ccc(Cl)cc2)sc2c1CCCC2	> 200	> 200	–
O=C(CN1CCN(Cc2ccccc2)CC1)N1CCCn2c1nc1ccccc1c2=O	> 200	> 200	–
Cc1ccc(N=NC(=O)NNc2ccc(C)cc2Br)c(Br)c1	> 200	35.5	–
O=c1[nH]c(NCCCCCO)nc2nc[nH]c12	> 200	> 200	–
C=CCC(NCc1ccccc1)[C@H](OCc1ccccc1)[C@@H]1COC(C)(C)O1 (stereo partly specified)	> 200	> 200	–
OC(C/C(=N\N1CCCCC1)c1cccs1)(C(F)(F)F)C(F)(F)F	> 200	145	–
COc1cc2c(c(O)c1C)C(=O)CC(c1ccccc1)O2 (stereo unspecified)	> 35.5	> 35.5	–
Brc1nc2c3ccccc3ncn2c1Br	> 30.2	14.8	–
O=C(CCNNC(=O)c1ccncc1)NCc1ccccc1	> 200	> 200	–
CCOC(=O)/C(C=Nc1c(C)n(C)n(-c2ccccc2)c1=O)=C(/C)O	> 200	> 200	–
CSc1nc(SC)c(Nc2cccc(C)c2)c(SC)n1	> 200	3.47	–
CCCCN(CCCC)C(=O)C(=O)C(C)C(=O)CC (stereo unspecified)	–	–	inactive
COC(=O)c1cnn2c1ccc1ccccc12	> 200	29.5	–
COC(=O)/C=C1/N=C(N(C)/N=C/c2ccccc2)NC1=O	> 200	> 200	–
CNCC(=O)NC(CO)C(=O)NC1C(C(N)=O)OC(n2ccc(N)nc2=O)C(O)C1O (stereo unspecified)	–	–	inactive
NCCCCC(NC(=O)C(CO)NC(=O)C(N)Cc1cnc[nH]1)C(=O)NC(Cc1ccccc1)C(=O)NC(Cc1c[nH]c2ccccc12)C(=O)NC(Cc1c[nH]c2ccccc12)C(N)=O (stereo unspecified) (H-HSKFWW-NH2; configuration not given here)	> 50.1	> 50.1	–
Cc1cn(C2CC(OC(c3ccccc3)(c3ccccc3)c3ccccc3)C(COC(c3ccccc3)(c3ccccc3)c3ccccc3)O2)c(=O)[nH]c1=O (stereo unspecified)	> 200	> 200	–

Structure (SMILES)	EC50 [µM]	IC50 [µM]	outcome
O=C(O)CCSSCCCCCS(=O)O	> 200	24	–
O=Nc1c(Br)cc(Br)c2ccc3c(Br)cc(Br)c(N=O)c3c12	> 50.1	> 50.1	–
CCOC(=O)CCC1(C)OCC(COC)O1 (stereo unspecified)	> 200	> 200	–
O=C1C[C@H]2[C@@H](O1)[C@@H](O)CN1C(=O)c3ccccc3[C@H]21	> 200	> 200	–
Cc1ccccc1C1=C(C(=O)Nc2ccc(Cl)c(Cl)c2)NC(=S)NC1N (stereo unspecified)	> 617	> 617	–
CC(=O)c1sc2c(c1OC(=O)c1ccc(Cl)cc1)c(=O)n(-c1ccccc1)c(=S)n2-c1ccccc1	> 200	0.776	–
NCCN1CCCCCc2ccccc21	> 200	123	–
N#CC(C(=O)Nc1ccccc1)C1=C(Cl)C(=O)c2ccccc2C1=O (stereo unspecified)	> 251	39.8	–
O=[N+]([O-])c1cccc2nc3ccccc3c(NCCCn3ccnc3[N+](=O)[O-])c12	> 0.2	0.0457	–
CC(NC(=O)C(NC(=O)OCc1ccccc1)C(C)C)C(=O)NCC(=O)O (stereo not drawn) (Cbz-Val-Ala-Gly-OH; configuration not given here)	> 200	> 200	–
CC(C)Oc1c(O)c2c3c(oc(=O)n3C=CC2c2ccccc2F)c1OC(C)C (stereo unspecified)	> 200	29.5	–
O=c1c2ccc(Cl)cc2oc2ccc(Cl)cc12	> 26.9	> 26.9	–
NC1CC(=O)c2csc(Br)c21 (stereo unspecified)	> 57.5	11	–
O=C1CSSCC(=O)NCCCN1	> 45.7	> 45.7	–
CCOC(=O)/C(CCCC#N)=N/O	> 200	> 200	–
CC1(O)CCC2(C#N)CCC1C2O (stereo unspecified)	> 1380	> 1380	–
COc1cc(COC(=O)N(CC(=O)O)c2ccccc2)c([N+](=O)[O-])cc1OC	> 646	295	–
CN(C)CCCn1c(-c2ccc(Br)cc2)csc1=Nc1ccccc1	> 200	9.77	–
CC(C)COC(=O)N1N=NC2C3CC(=O)C(O3)C21 (stereo unspecified)	> 708	123	–
COc1ccc(-c2cnoc2-c2ccc(OC)c(OC)c2)cc1OC	> 55	0.355	–
O=C1c2sc(-c3ccc(Cl)cc3)cc2-n2cccc21	> 151	> 151	–
CCOC(=O)c1c(N)nnc(-c2ccccc2)c1-c1ccccc1	> 200	129	–
N#Cc1[nH]c(=O)n(-c2ccc([N+](=O)[O-])cc2)c1N	> 200	> 200	–

Structure (SMILES)	EC50 [µM]	IC50 [µM]	outcome
O=C1NC(=S)N/C1=C\c1ccc(Sc2ccccc2C(=O)O)s1	> 200	110	–
CC(C)(C)[C@H]1CCC2(OCCO2)[C@](O)(CCCO)C1	> 200	> 200	–
Cc1csc(CP(=O)(OC(C)C)OC(C)C)n1	> 200	> 200	–
COC(=O)C1(Cc2ccccc2)Cc2cc3c(cc2C1O)CCC3 (stereo unspecified)	> 200	24	–
NC(=O)CSc1nc2ccccc2c(=O)n1N	> 200	> 200	–
O=CC(=O)C(C(=O)O)[N+](=O)[O-] (stereo unspecified)	> 200	> 200	–
ON=C1CCCCC(=NO)CCCC1	> 200	> 200	–
CNN1C(=O)c2c(N)c(C#N)c(-c3ccccc3)c(-c3ccccc3)c2C1=O	16.2	174	–
COc1cc2c(c(OC)c1OC)-c1ccc(OC)c(=O)cc1C(NC(=O)COc1ccccc1)CC2 (stereo unspecified)	> 0.2	0.00251	–
COC1/C=C/OC2(C)Oc3c(C)c(O)c4c(c3C2=O)C(=O)C=C(NC(=O)/C(C)=C\C=C\C(C)C(OC=O)C(C)C(O)C(C)C(OC(C)=O)C1C)C4=O (stereo unspecified)	> 200	7.41	–
CC(=O)Oc1c(C)cc(-c2cc(C)c(OC(C)=O)c(C)c2)cc1C	> 200	55	–
COc1ccc2nc(NC(=O)C(=O)C(C#N)c3ccc(CC#N)cc3)sc2c1 (stereo unspecified)	–	–	inactive
COC(=O)C1(C)NCCc2c1[nH]c1ccccc21 (stereo unspecified)	> 331	> 331	–
CC(C)=CC(=O)OC1C2C(C)=CC(O)C(O)C2(C)C2C3(O)OCC24C(CC(=O)OC14)C(C)C3O (stereo unspecified)	> 2	0.0912	–
O=c1c2ccccc2oc2cc(Br)ccc12	> 26.3	> 26.3	–
CC(CCC=C(c1cc(Cl)c(O)c(C(=O)O)c1)c1cc(Cl)c(O)c(C(=O)O)c1)C1CCC2C3CC[C@@H]4CCCC[C@]4(C)C3CC[C@]12C (stereo partly specified)	> 7.24	> 7.24	–
CC1(C)C(=O)/C=C\C(=O)C(C)(C)C(=O)/C=C\C(=O)C(C)(C)C(=O)/C=C\C(=O)C(C)(C)C(=O)/C=C\C1=O	–	–	inactive
COc1cc2c(cc1OC)[C@@](C)(C(O)C(O)C(C)(C)O)NCC2 (stereo partly specified)	> 200	> 200	–
O=C1CN(CCN2CCOCC2)CC(=O)N2Cc3ccccc3CN12	> 200	> 200	–
CN1C(=O)C2CSCN2C1=S (stereo unspecified)	> 955	316	–
CCC1COS(=O)(=O)CS(=O)(=O)O1 (stereo unspecified)	> 1070	1020	–
C=C(c1ccccc1)N1N=NC2CCOC21 (stereo unspecified)	> 200	> 200	–
O=c1c2cc([N+](=O)[O-])ccc2n2n1Cc1ccccc1CC2	> 200	> 200	–

Structure (SMILES)	EC50 [µM]	IC50 [µM]	outcome
COc1cccc(NC(=O)CC(=O)N2N=C(N(CCC#N)c3ccc(Cl)cc3)CC2c2ccccc2)c1 (stereo unspecified)	> 69.2	> 69.2	–
COc1cc(C(c2c(O)c3ccccc3oc2=O)c2c(O)c3ccccc3oc2=O)ccc1O	> 200	56.2	–
O=C(NC(=Nc1ccccc1)SCSC(=Nc1ccccc1)NC(=O)c1ccccc1Cl)c1ccccc1Cl	> 200	30.9	–
COc1ccc2c(c1)O[C@@H]1c3ccc(OC)cc3OC[C@H]21	–	–	inactive
O=C(NC(=Nc1ccccc1)SCSC(=Nc1ccccc1)NC(=O)c1ccccc1F)c1ccccc1F	> 200	28.8	–
CN1CCCCC1CCN1c2ccccc2Sc2ccc(S(C)=O)cc21 (stereo unspecified)	166	219	–
C=Cc1c(-c2ccccc2)cnc2[nH]c3ccccc3c12	> 13.8	> 13.8	–
CCOC(=O)C(C)(C(C)=O)c1nc(=S)[nH]c(=S)[nH]1 (stereo unspecified)	> 200	95.5	–
CC(C)/C(Cl)=N/OC(=O)Nc1ccc(Cl)c(Cl)c1	> 20	3.16	–
CC(=O)OCC1OC(Nc2nncs2)C(OC(C)=O)C1OC(C)=O (stereo unspecified)	> 692	562	–
COC(=O)C(c1ccccc1)C(SCc1ccccc1)c1ccccc1 (stereo unspecified)	> 200	> 200	–
c1csc(-c2ccsc2-c2cccs2)c1	> 200	97.7	–
CCc1cccc(C(=O)NCCN(C)C)c1[N+](=O)[O-]	> 200	> 200	–
COc1ccccc1C=C(C#N)C#N	> 977	229	–
COC(=O)C12CCC(CC1=O)C2(C)C (stereo unspecified)	> 251	> 251	–
c1cc2nnsc2s1	> 251	> 251	–
CN(C)c1ccc(C2SCC(=O)N2NS(=O)(=O)c2cccc(C(=O)O)c2)cc1 (stereo unspecified)	> 200	79.4	–
Cc1cccc(N=Nc2c(S(=O)(=O)O)cc3cc(NC(=O)Nc4ccc5c(O)c(N=Nc6ccc7cc(S(=O)(=O)O)ccc7c6)c(S(=O)(=O)O)cc5c4)ccc3c2O)c1	15.8	75.9	–
CCOC(=O)C1=NN(c2ccccc2)C(=O)/C1=C/N1C(=O)/C(=C/c2ccc([N+](=O)[O-])cc2)SC1=S	> 200	23.4	–
O=c1c2cc3c(cc2[nH]c2ncccc12)OCO3	> 200	145	–
